According to US4189497A, “Method of treating arthritic disease” (American Cyanamid Company, priority 1978, dated 1980):

Test system: Adjuvant Arthritis in Rats
Assay: Adjuvant induced arthritis in rats (Freund's adjuvant, right hind paw)
Excerpt: Adjuvant induced experimental polyarthritis is a specific systemic disease of the rat which shares interesting similarities with rheumatoid arthritis. Specifically, the histology of the two diseases bears a remarkable resemblance as shown by C. M. Pearson et al., Am. J. Pathol. 42, 73 (1963). E. M. Glenn, Am. J. Vet. Res. 27 (116) 339 (1966) has classified adjuvant induced polyarthritis as a crippling and permanent deformity resulting from diffuse connective tissue involvement around certain susceptible joints in the rat. Zahiri et al., Can. Med. Ass. J. 101, 269 (1969) have shown that the fusiform swelling of the distal joints is associated with edema, congestion and synovitis including pannus formation, all of which precede the ultimate destruction of bone and cartilage. Furthermore, Zahiri et al. indicate that the cartilage destruction in the joint is due to an invasive pannus which originates in the marginal synovium and extends across the articular surface to erode it. […] See S. Wong et al., J. Pharm. & Exptl. Ther. 185, 127 (1973) and G. R. Bobalick et al., Agents & Actions 4, 364 (1974).
Groups of three Royal Hart, Wistar strain rats weighing 200±10 grams each were injected intradermally in the right hind paw with Freund's adjuvant (dried human tubercle bacilli in a mineral oil vehicle) at a dose of 2 mg./kg. of body weight. Test compound was administered orally in a 1.5% starch vehicle at various doses once daily on days 0 through 13 post challenge. […] On the 14th and 21st day post challenge the diameter of the injected paw (primary lesion) was measured by micrometer caliper. The volume of inflamed paws were estimated from these measurements and the results are expressed as percent inhibition of swelling as compared to controls. At the same time, the other inflamed sites, such as ears, paws and tail (secondary lesions) were observed and each rat was graded as to degree of inflammation and swelling present. The grading is based on a scale of 0 to 24, where 0 represents a complete absence of induced arthritic nodules and 24 represents the maximum degree of inflammation. The mean grade for each treated group is calculated and the effects of each compound are expressed as percent inhibition of the control grade.

[1] = oral dose 18.8 mg./kg. once daily days 0-13
[2] = oral dose 37.5 mg./kg. once daily days 0-13
[3] = oral dose 75 mg./kg. once daily days 0-13
[4] = oral dose 150 mg./kg. once daily days 0-13
[5] = oral dose 50 mg./kg. once daily days 0-13
[6] = oral dose 100 mg./kg. once daily days 0-13
[7] = oral dose 200 mg./kg. once daily days 0-13
[8] = oral dose 400 mg./kg. once daily days 0-13
[9] = oral dose 0.25 mg./kg. once daily days 0-13
[10] = oral dose 0.5 mg./kg. once daily days 0-13
[11] = oral dose 1 mg./kg. once daily days 0-13
[12] = oral dose 2 mg./kg. once daily days 0-13

CCCCC1C(=O)N(c2ccccc2)N(c2ccccc2)C1=O [Phenylbutazone]
% Inhibition of Swelling (primary lesion) Day 14 [1]: 31% | Mean Weight Gain Day 14 [1]: 50 grams | % Inhibition of Swelling (primary lesion) Day 21 [1]: 7% | Mean Weight Gain Day 21 [1]: 45 grams | % Inhibition of Swelling (primary lesion) Day 14 [2]: 56% | Mean Weight Gain Day 14 [2]: 53 grams | % Inhibition of Swelling (primary lesion) Day 21 [2]: 14% | Mean Weight Gain Day 21 [2]: 53 grams | % Inhibition of Swelling (primary lesion) Day 14 [3]: 62% | Mean Weight Gain Day 14 [3]: 51 grams | % Inhibition of Swelling (primary lesion) Day 21 [3]: 28% | Mean Weight Gain Day 21 [3]: 50 grams | % Inhibition of Swelling (primary lesion) Day 14 [4]: 75% | Mean Weight Gain Day 14 [4]: 40 grams | % Inhibition of Swelling (primary lesion) Day 21 [4]: 44% | Mean Weight Gain Day 21 [4]: 50 grams

CC(=O)Oc1ccccc1C(=O)O [Aspirin]
% Inhibition of Swelling (primary lesion) Day 14 [5]: 23% | Mean Weight Gain Day 14 [5]: 56 grams | % Inhibition of Swelling (primary lesion) Day 21 [5]: 3% | Mean Weight Gain Day 21 [5]: 44 grams | % Inhibition of Swelling (primary lesion) Day 14 [6]: 36% | Mean Weight Gain Day 14 [6]: 48 grams | % Inhibition of Swelling (primary lesion) Day 21 [6]: 13% | Mean Weight Gain Day 21 [6]: 53 grams | % Inhibition of Swelling (primary lesion) Day 14 [7]: 48% | Mean Weight Gain Day 14 [7]: 40 grams | % Inhibition of Swelling (primary lesion) Day 21 [7]: 27% | Mean Weight Gain Day 21 [7]: 44 grams | % Inhibition of Swelling (primary lesion) Day 14 [8]: 73% | Mean Weight Gain Day 14 [8]: 41 grams | % Inhibition of Swelling (primary lesion) Day 21 [8]: 48% | Mean Weight Gain Day 21 [8]: 55 grams

N#CCC(=O)c1cccs1 [B-oxo-2-thiophenepropionitrile, β-oxo-2-thiophenepropionitrile]
progression of the arthritis and associated joint deterioration (adjuvant arthritic rats, oral dosing, summary of Table I): appears to suppress the progression of the arthritis and associated joint deterioration | % Inhibition of Control Grade (secondary lesion) Day 14 [5]: 46% | % Inhibition of Swelling (primary lesion) Day 14 [5]: 46% | Mean Weight Gain Day 14 [5]: 56 grams | % Inhibition of Control Grade (secondary lesion) Day 21 [5]: 0% | % Inhibition of Swelling (primary lesion) Day 21 [5]: 18% | Mean Weight Gain Day 21 [5]: 48 grams | Dead/Treated At 21 Days (oral dose 50 mg./kg. once daily days 0-13, adjuvant arthritic rats): 3/36 | % Inhibition of Control Grade (secondary lesion) Day 14 [6]: 58% | % Inhibition of Swelling (primary lesion) Day 14 [6]: 58% | Mean Weight Gain Day 14 [6]: 52 grams | % Inhibition of Control Grade (secondary lesion) Day 21 [6]: 10% | % Inhibition of Swelling (primary lesion) Day 21 [6]: 42% | Mean Weight Gain Day 21 [6]: 69 grams | Dead/Treated At 21 Days (oral dose 100 mg./kg. once daily days 0-13, adjuvant arthritic rats): 3/18 | % Inhibition of Control Grade (secondary lesion) Day 14 [7]: 72% | % Inhibition of Swelling (primary lesion) Day 14 [7]: 72% | Mean Weight Gain Day 14 [7]: 34 grams | % Inhibition of Control Grade (secondary lesion) Day 21 [7]: 32% | % Inhibition of Swelling (primary lesion) Day 21 [7]: 29% | Mean Weight Gain Day 21 [7]: 54 grams | Dead/Treated At 21 Days (oral dose 200 mg./kg. once daily days 0-13, adjuvant arthritic rats): 2/18

COc1ccc2c(c1)c(CC(=O)O)c(C)n2C(=O)c1ccc(Cl)cc1 [Indomethacin]
% Inhibition of Swelling (primary lesion) Day 14 [9]: 30% | Mean Weight Gain Day 14 [9]: 51 grams | % Inhibition of Swelling (primary lesion) Day 21 [9]: 4% | Mean Weight Gain Day 21 [9]: 57 grams | % Inhibition of Swelling (primary lesion) Day 14 [10]: 40% | Mean Weight Gain Day 14 [10]: 53 grams | % Inhibition of Swelling (primary lesion) Day 21 [10]: 20% | Mean Weight Gain Day 21 [10]: 51 grams | % Inhibition of Swelling (primary lesion) Day 14 [11]: 46% | Mean Weight Gain Day 14 [11]: 63 grams | % Inhibition of Swelling (primary lesion) Day 21 [11]: 19% | Mean Weight Gain Day 21 [11]: 65 grams | % Inhibition of Swelling (primary lesion) Day 14 [12]: 51% | Mean Weight Gain Day 14 [12]: 68 grams | % Inhibition of Swelling (primary lesion) Day 21 [12]: 24% | Mean Weight Gain Day 21 [12]: 68 grams
